Publication PMC2689075 (Current biology : CB, 2009)

Target: T1, atypical protein kinase C (aPKC) (Drosophila melanogaster, UniProt A1Z9X0)
T1 sequence (A1Z9X0 1-606): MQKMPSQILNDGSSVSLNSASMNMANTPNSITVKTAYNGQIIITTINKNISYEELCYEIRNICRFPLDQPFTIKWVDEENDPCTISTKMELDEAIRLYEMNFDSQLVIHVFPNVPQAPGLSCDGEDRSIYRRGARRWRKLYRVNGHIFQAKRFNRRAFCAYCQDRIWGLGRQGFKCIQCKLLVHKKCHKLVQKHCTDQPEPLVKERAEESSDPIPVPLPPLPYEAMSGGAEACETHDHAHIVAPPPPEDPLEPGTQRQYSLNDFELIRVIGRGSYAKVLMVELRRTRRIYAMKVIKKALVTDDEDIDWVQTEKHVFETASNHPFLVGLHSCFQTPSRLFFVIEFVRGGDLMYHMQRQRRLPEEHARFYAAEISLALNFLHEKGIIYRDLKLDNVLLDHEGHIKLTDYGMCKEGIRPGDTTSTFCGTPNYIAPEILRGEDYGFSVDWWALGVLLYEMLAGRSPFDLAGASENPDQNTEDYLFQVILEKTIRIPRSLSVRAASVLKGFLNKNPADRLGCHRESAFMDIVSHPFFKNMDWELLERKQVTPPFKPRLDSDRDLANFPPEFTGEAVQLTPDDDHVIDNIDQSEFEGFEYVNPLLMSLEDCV
Assay: in vitro […] kinase assay with purified recombinant aPKC
Format: biochemical

IC50: < 10 µM
SMILES: C[C@@H](N)[C@H]1CC[C@H](C(=O)Nc2ccncc2)CC1 [Y-27632]
